Some results are limits rather than exact numbers.

The target of the test is T1, PI3Kα (p110α/p85α) (Homo sapiens, UniProt P42336).
T1 construct: purchased BPS Bioscience (San Diego, Calif.) or Millipore (Billerica, Mass.)
T1 sequence (P42336 whole entry): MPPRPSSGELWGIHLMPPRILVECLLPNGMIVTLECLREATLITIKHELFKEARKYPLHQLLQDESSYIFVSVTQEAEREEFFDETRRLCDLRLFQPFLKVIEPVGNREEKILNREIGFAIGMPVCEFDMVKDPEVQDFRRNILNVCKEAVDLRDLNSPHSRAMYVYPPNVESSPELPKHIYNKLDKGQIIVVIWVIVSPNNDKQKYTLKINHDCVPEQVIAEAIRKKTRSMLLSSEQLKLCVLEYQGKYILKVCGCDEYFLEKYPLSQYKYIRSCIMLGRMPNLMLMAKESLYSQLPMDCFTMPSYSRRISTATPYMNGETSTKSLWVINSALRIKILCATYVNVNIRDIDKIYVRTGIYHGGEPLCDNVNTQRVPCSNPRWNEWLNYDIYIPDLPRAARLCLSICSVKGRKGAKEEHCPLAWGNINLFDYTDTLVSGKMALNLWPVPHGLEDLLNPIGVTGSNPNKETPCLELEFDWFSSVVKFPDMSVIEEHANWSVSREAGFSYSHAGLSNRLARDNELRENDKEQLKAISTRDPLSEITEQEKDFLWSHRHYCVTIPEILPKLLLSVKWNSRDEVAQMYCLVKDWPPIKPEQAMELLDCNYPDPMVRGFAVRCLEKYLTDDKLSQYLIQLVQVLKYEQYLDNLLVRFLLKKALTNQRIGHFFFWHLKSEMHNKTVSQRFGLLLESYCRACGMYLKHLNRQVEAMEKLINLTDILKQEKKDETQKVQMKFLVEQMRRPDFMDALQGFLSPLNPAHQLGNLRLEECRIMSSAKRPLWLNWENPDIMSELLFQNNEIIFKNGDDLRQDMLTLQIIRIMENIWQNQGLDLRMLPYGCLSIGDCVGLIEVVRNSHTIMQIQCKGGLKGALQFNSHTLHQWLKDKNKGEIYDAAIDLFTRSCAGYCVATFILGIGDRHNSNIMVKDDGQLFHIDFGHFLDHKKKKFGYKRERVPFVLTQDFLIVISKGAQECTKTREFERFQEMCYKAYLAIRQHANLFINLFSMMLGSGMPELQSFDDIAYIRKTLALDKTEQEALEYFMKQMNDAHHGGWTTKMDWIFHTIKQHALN
T1 sequence (P27986 whole entry partner): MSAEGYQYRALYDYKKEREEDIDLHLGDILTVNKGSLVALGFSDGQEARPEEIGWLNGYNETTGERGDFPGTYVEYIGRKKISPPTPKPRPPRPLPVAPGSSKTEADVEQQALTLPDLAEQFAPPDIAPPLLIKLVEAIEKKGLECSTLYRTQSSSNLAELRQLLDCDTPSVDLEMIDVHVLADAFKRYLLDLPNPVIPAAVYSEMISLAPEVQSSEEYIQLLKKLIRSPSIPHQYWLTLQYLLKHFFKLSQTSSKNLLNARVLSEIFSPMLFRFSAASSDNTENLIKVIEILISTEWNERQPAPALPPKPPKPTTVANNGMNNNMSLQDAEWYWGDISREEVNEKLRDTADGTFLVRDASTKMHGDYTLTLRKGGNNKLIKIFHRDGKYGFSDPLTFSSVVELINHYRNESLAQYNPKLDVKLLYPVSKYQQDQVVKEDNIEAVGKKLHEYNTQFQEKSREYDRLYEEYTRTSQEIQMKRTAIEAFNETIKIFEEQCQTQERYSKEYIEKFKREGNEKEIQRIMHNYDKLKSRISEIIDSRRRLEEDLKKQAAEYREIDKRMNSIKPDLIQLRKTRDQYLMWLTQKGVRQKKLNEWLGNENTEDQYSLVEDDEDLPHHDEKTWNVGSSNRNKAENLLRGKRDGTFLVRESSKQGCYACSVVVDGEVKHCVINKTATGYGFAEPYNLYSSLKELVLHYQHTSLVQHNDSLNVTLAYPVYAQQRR
Description: HTRF assay, potency against active PI3Kα. It is filed as biochemical. The following applies: HTRF; [ATP]=50 μM, [di-C8-PIP2]=10 μM; 30 min pre-incubation; read-out: PI3Kα Inhibition. The protocol: Homogeneous Time Resolved Fluorescence (HTRF) Assay Protocol for Potency Assessment Against the Active Forms of PI3Kα, PI3Kβ, and PI3Kγ
The mechanics of the assay platform are best described by the vendor (Millipore, Billerica, Mass.) on their website at the following URL: www.millipore.com/coa/tech1/74jt4z.
Briefly, Stop solution (Stop A, #33-007 and Stop B, #33-009; 3:1 ratio) and Detection Mix (from DMC, #33-015 with DMA, #33-011 and DMB, #33-013; 18:1:1 ratio) were prepared as recommended by the manufacturer about 2 hrs prior to use. […] Lipid kinase reactions were started with the addition of 5 μL of ATP solution, mixed for 15 sec on a rotary plate shaker and incubated for 30-60 minutes at 25° C. Next, reactions were stopped with a 5 μL addition of Stop solution immediately followed by a 5 μL volume of Detection Mix. […] At the conclusion of each assay, the HTRF ratio from fluorescence emission values for each well was calculated and % Inhibition determined from averaged controls wells (+/−PI3K enzyme). % Inhibition values for each compound were then plotted against inhibitor concentration to estimate IC50 from log [Inhibitor] vs Response, Variable Slope model in GraphPad Prism from GraphPad Software (San Diego, Calif.).
With `C=CC(=O)NCc1ccc(-c2cc3nc(-c4cccc(O)c4)nc(N4CCOCC4)c3s2)cc1` [II-a-65, N-(4-(2-(3-hydroxyphenyl)-4-morpholinothieno[3,2-d]pyrimidin-6-yl)benzyl)acrylamide], the IC50 is less than 10 nM.

Turning to `CC(C)=CC(=O)CCCC(=O)N1CC=C(c2cc(-c3cnc(N)nc3)nc(N3CCOCC3)c2)CC1` [XII-3, 1-(4-(2-(2-aminopyrimidin-5-yl)-6-morpholinopyridin-4-yl)-5,6-dihydropyridin-1(2H)-yl)-7-methyloct-6-ene-1,5-dione], the IC50 was in the range of 10 to 100 nM. Take `CC(C)=CC(=O)CCc1ccc(C#Cc2cc(-c3cccc4[nH]ncc34)nc(N3CCOCC3)c2)cc1` [XII-19, 1-(4-((2-(1H-indazol-4-yl)-6-morpholinopyridin-4-yl)ethynyl)phenyl)-5-methylhex-4-en-3-one]: the IC50 is greater than 1000 nM. As to `C=CC(=O)N1CCN(C2CCC(O)(c3cc4nc(-c5cccc6[nH]ncc56)nc(N5CCOCC5)c4s3)CC2)CC1` (mixture of isomers) [II-a-152, 1-(4-(4-(2-(1H-indazol-4-yl)-4-morpholinothieno[3,2-d]pyrimidin-6-yl)-4-hydroxycyclohexyl)piperazin-1-yl)prop-2-en-1-one], the IC50 was 100 to 1000 nM. The value for `C/C=C/C(=O)CCC(=O)N1CCN(c2ccc(-c3cc4nc(-c5cccc(O)c5)nc(N5CCOCC5)c4s3)cc2)CC1` [II-a-102, (E)-1-(4-(4-(2-(3-hydroxyphenyl)-4-morpholinothieno[3,2-d]pyrimidin-6-yl)phenyl)piperazin-1-yl)hept-5-ene-1,4-dione] was less than 10 nM; that for `C=CC(=O)Nc1cccc(C(=O)N2CC=C(c3cc4nc(-c5cnc(N)nc5)nc(N5CCOCC5)c4s3)CC2)c1` [II-a-171, N-(3-(4-(2-(2-aminopyrimidin-5-yl)-4-morpholinothieno[3,2-d]pyrimidin-6-yl)-1,2,3,6-tetrahydropyridine-1-carbonyl)phenyl)acrylamide] was less than 10 nM; that for `CN(C)C/C=C/C(=O)NC1CCN(c2ccc(-c3cc4nc(-c5cccc(O)c5)nc(N5CCOCC5)c4s3)cc2)CC1` [II-a-150, (E)-4-(dimethylamino)-N-(1-(4-(2-(3-hydroxyphenyl)-4-morpholinothieno[3,2-d]pyrimidin-6-yl)phenyl)piperidin-4-yl)but-2-enamide] was 10 to 100 nM. `C/C=C/C(=O)CCC(=O)NCCCC(=O)N1CCN(Cc2cc3nc(-c4cccc5[nH]ncc45)nc(N4CCOCC4)c3s2)CC1` [II-a-19, (E)-N-(4-(4-((2-(1H-indazol-4-yl)-4-morpholinothieno[3,2-d]pyrimidin-6-yl)methyl)piperazin-1-yl)-4-oxobutyl)-4-oxohept-5-enamide]: the IC50 lay in the range of 10 to 100 nM. The value for `C/C=C/C(=O)OCC(=O)N1CCN(Cc2cc3nc(-c4cccc5[nH]ncc45)nc(N4CCOCC4)c3s2)CC1` [II-a-146, (E)-2-(4-((2-(1H-indazol-4-yl)-4-morpholinothieno[3,2-d]pyrimidin-6-yl)methyl)piperazin-1-yl)-2-oxoethyl but-2-enoate] was greater than 1000 nM; that for `CC(C)=CC(=O)CN1CCN(c2ccc(-c3cc(-c4cnc(N)nc4)nc(N4CCOCC4)c3)cn2)CC1` [XII-27, 1-(4-(2′-(2-aminopyrimidin-5-yl)-6′-morpholino-3,4′-bipyridin-6-yl)piperazin-1-yl)-4-methylpent-3-en-2-one] was 10 to 100 nM; that for `COc1c(OCCNC(=O)c2ccc(NC(=O)/C=C/c3ncc[nH]3)cc2)ccc2c1N=C(NC(=O)c1cccnc1)N1CCN=C21` [IX-6, (E)-N-(8-(2-(4-(3-(1H-imidazol-2-yl)acrylamido)benzamido)ethoxy)-7-methoxy-2,3-dihydroimidazo[1,2-c]quinazolin-5-yl)nicotinamide] was 10 to 100 nM. Turning to `C=CC(=O)Nc1ccc(C(=O)N2CCC(n3nc(-c4ccc(OC)c(OC)c4)c4c(N)ncnc43)CC2)cc1` [XI-6, N-(4-(4-(4-amino-3-(3,4-dimethoxyphenyl)-1H-pyrazolo[3,4-d]pyrimidin-1-yl)piperidine-1-carbonyl)phenyl)acrylamide], the IC50 is greater than 1000 nM.

Regarding `C/C=C/C(=O)CCC(=O)NCc1ccc(-c2cc3nc(-c4cccc(O)c4)nc(N4CCOCC4)c3s2)cc1` [II-a-80, (E)-N-(4-(2-(3-hydroxyphenyl)-4-morpholinothieno[3,2-d]pyrimidin-6-yl)benzyl)-4-oxohept-5-enamide], the IC50 is less than 10 nM. As for `C=CC(=O)N(C)CC(=O)N1CCC(n2nc(-c3cc4cc(O)ccc4[nH]3)c3c(N)ncnc32)CC1` [XI-8, N-(2-(4-(4-amino-3-(5-hydroxy-1H-indol-2-yl)-1H-pyrazolo[3,4-d]pyrimidin-1-yl)piperidin-1-yl)-2-oxoethyl)-N-methylacrylamide], the IC50 was greater than 1000 nM. The value for `C=CC(=O)N1CCN(c2ccc(-c3cc(-c4cnc(N)nc4)nc(N4CCOCC4)c3)cn2)CC1` [XII-28, 1-(4-(2′-(2-aminopyrimidin-5-yl)-6′-morpholino-3,4′-bipyridin-6-yl)piperazin-1-yl)prop-2-en-1-one] was 100 to 1000 nM; that for `CC(C)=CC(=O)CCCCC#Cc1cc(-c2cnc(N)cc2C(F)(F)F)nc(N2CCOCC2)c1` [XII-8, 10-(6′-amino-6-morpholino-4′-(trifluoromethyl)-2,3′-bipyridin-4-yl)-2-methyldec-2-en-9-yn-4-one] was greater than 1000 nM; that for `C/C=C/C(=O)CCC(=O)N1Cc2ccc(-c3cc4nc(-c5cccc(O)c5)nc(N5CCOCC5)c4s3)cc2C1` [II-a-68, (E)-1-(5-(2-(3-hydroxyphenyl)-4-morpholinothieno[3,2-d]pyrimidin-6-yl)isoindolin-2-yl)hept-5-ene-1,4-dione] was less than 10 nM. For `C=CC(=O)NC1CCN(c2ccc(-c3cc4nc(-c5cccc(O)c5)nc(N5CCOCC5)c4s3)cc2)CC1` [II-a-81, N-(1-(4-(2-(3-hydroxyphenyl)-4-morpholinothieno[3,2-d]pyrimidin-6-yl)phenyl)piperidin-4-yl)acrylamide] the value was 10 to 100 nM; for `C=CC(=O)N[C@@H]1CCCC[C@H]1C(=O)N1CCN(Cc2cc3nc(-c4cccc5[nH]ncc45)nc(N4CCOCC4)c3s2)CC1` [II-a-97], 100 to 1000 nM. The value for `CC(C)=CC(=O)C(=O)N1CCN(c2cc(C)c(-c3cc(-c4cnc(N)nc4)nc(N4CCOCC4)c3)cn2)CC1` [XII-26, 1-(4-(2′-(2-aminopyrimidin-5-yl)-4-methyl-6′-morpholino-3,4′-bipyridin-6-yl)piperazin-1-yl)-4-methylpent-3-ene-1,2-dione] was 10 to 100 nM.

For the compound `C=CC(=O)Nc1ccc(C(=O)N2CC=C(c3cc4nc(-c5cccc(O)c5)nc(N5CCOCC5)c4s3)CC2)cc1OCCCN` [II-a-155, N-(2-(3-aminopropoxy)-4-(4-(2-(3-hydroxyphenyl)-4-morpholinothieno[3,2-d]pyrimidin-6-yl)-1,2,3,6-tetrahydropyridine-1-carbonyl)phenyl)acrylamide], the IC50 fell in the range of 10 to 100 nM. For `C=CC(=O)N1CCc2cc(-c3cc4nc(-c5cccc(O)c5)nc(N5CCOCC5)c4s3)ccc2C1` [II-a-66, 1-(6-(2-(3-hydroxyphenyl)-4-morpholinothieno[3,2-d]pyrimidin-6-yl)-3,4-dihydroisoquinolin-2(1H)-yl)prop-2-en-1-one] the value was 10 to 100 nM; for `C=CC(=O)NCC12CCC(c3cc4nc(-c5cccc6[nH]ncc56)nc(N5CCOCC5)c4s3)(CC1)OC2` [II-a-153, N-((1-(2-(1H-indazol-4-yl)-4-morpholinothieno[3,2-d]pyrimidin-6-yl)-2-oxabicyclo[2.2.2]octan-4-yl)methyl)acrylamide], 100 to 1000 nM; for `CC(C)=CC(=O)CCCC(=O)N1CCN(Cc2cc(-c3cnc(N)nc3)nc(N3CCOCC3)c2)CC1` [XII-23, 1-(4-((2-(2-aminopyrimidin-5-yl)-6-morpholinopyridin-4-yl)methyl)piperazin-1-yl)-7-methyloct-6-ene-1,5-dione], 100 to 1000 nM. The value for `C=CC(=O)N1CCN(c2ccc(-c3ccnc4ccc(/C=C5\SC(=O)NC5=O)cc34)cn2)CC1` [V-4, (Z)-5-((4-(6-(4-acryloylpiperazin-1-yl)pyridin-3-yl)quinolin-6-yl)methylene)thiazolidine-2,4-dione] was 10 to 100 nM. With `C=CC(=O)Nc1ccc(CNC(=O)c2cc(-c3cnc(N)nc3C)nc(N3CCOCC3)c2)cc1` [XII-17, N-(4-acrylamidobenzyl)-2-(2-amino-4-methylpyrimidin-5-yl)-6-morpholinoisonicotinamide], the IC50 is greater than 1000 nM. `C/C=C/C(=O)CCC(=O)NCCOc1ccc2c(c1OC)N=C(NC(=O)c1cccnc1)N1CCN=C21` [IX-2, (E)-N-(7-methoxy-8-(2-(4-oxohept-5-enamido)ethoxy)-2,3-dihydroimidazo[1,2-c]quinazolin-5-yl)nicotinamide]: the IC50 was in the range of 10 to 100 nM. With `CC(C)(C)/C=C/C(=O)CCC(=O)N1CCN(Cc2cc3nc(-c4cccc5[nH]ncc45)nc(N4CCOCC4)c3s2)CC1` [II-a-131, (E)-1-(4-((2-(1H-indazol-4-yl)-4-morpholinothieno[3,2-d]pyrimidin-6-yl)methyl)piperazin-1-yl)-7,7-dimethyloct-5-ene-1,4-dione], the IC50 fell in the range of 100 to 1000 nM.

For the origin of these results see patent US20110230476A1, “PI3 KINASE INHIBITORS AND USES THEREOF” (AVILA THERAPEUTICS, INC., priority 2009, published 2011).
